Experimental findings from patent publication US7141541B1, “Use of peptides” (University Court of the University of Dundee, priority 1999, dated 2006) are described below.

Where no end group is shown, it is not given here.

Series [1] concerns MRC5 cells. Kind of series: DAPI staining of cell nuclei. It counts as cell-based. The settings on record: 20 μM, 40 min. The method, then: (§1) MRC5 cells were incubated with 10 μM Hu4G peptide for 10 min. Cells visualised with fluorescein by fluorescence microscopy. […] 80% of cells incubated with the 10 μM Hu4G peptide fluoresced positive. d) Images of DAPI-stained MRC5 cells incubated with either 20 μM Hu4G or Hu4G YLL-AAA peptide for 40 min. Arrows indicate the position of a cell with either a condensed nucleus (top right) or a nucleus with a punctate appearance (bottom left). e) Visualisation of effects on the MPT. Serum-starved MRC5 cells were loaded with 0.1 μM JCl for 30 min prior to addition of 10 μM peptide. Changes in mitochondrial permeability were viewed by laser scanning confocal microscopy (krypton/argon laser) using identical setting. Green channel: excitation 488 nm/emission 522 nm. Red channel: excitation 568 nm/emission 585 nm. Channels were collected separately to avoid cross over. Images were taken 5 min after addition of the peptide;

The test system of series [2] is MRC5 cells. Description: FACS analysis of propidium iodide-stained cells. Particulars: 20 μM, 40 min. The class given is cell-based.
Series [3] concerns MRC5 cells. Description: peptide-induced cell death (apoptosis) in MRC5 cells. It counts as cell-based. An excerpt: FIG. 8 is a table illustrating the induction of apoptosis by eIF4G peptides in MRC5 cells;
FIG. 9 is a summary of the results of inhibition of eIF4G(413-424)-induced apoptosis;

The subject of series [4] is MRC5 cells. Description: MTT assay with general translation inhibitors (FIG. 16). The class given is cell-based. The settings on record: serum deprived cells. How it is done:
(§2) FIG. 16 illustrates that eIF4E binding peptide cell death is not through eIF4E's known role in mRNA translation. a) 72 h serum-starved MRC5 cells were treated with 100 μg/ml and 10 μg/ml cylcoheximide, 1 μg/ml and 0.1 μg/ml pactamycine or 10 μM Hu4G peptide for 2 h prior to a MTT assay. Cells were pulsed labelled with [^35S]methionine for 30 min after addition of the inhibitors/peptide. The incorporation of [^35S]methionine into protein was determined following hot trichloroacetic acid precipitation. b) 72 h serum-starved MRC5 cells were treated with 100 μg/ml cycloheximide (Chx), 1 μg/ml pactamycine (Pact) or c) MRC5 cells which had been starved of serum for 72 h were pre-incubated with 100 μg/ml cycloheximide or 1 μg/ml pactamycine for 30 min prior to addition of 10 μM Hu4G peptide. Cells were then further incubated for 1.5 h prior to a MTT assay. Results from three independent experiments (+/− SEM).

In series [5] the target is T1, eIF4E in MRC5 cell lysate (Homo sapiens, UniProt P06730).
T1 construct: endogenous in cells; host or cells: MRC5
Kind of series: pull-down of eIF4E from MRC5 cell lysate. It counts as binding. The settings on record: 0.2 mM peptide, 200 μg MRC5 cell lysate, 1 h at 4° C. How it is done:
(§3) Sequences of biotinylated, penetratin-linked peptides. U=Norvaline, a substitution for cysteine. Conserved residues that are important in binding to eIF4E are underlined. b). In vitro binding assay. i) 1 μg recombinant eIF4E was incubated with 0.2 mM biotinylated peptides in a total volume of 50 μl wash buffer (1×PBS/250 mM Kcl) for 1 h at 4° C. ii) 0.2 mM Hu4G or Hu4G YLL-AAA was incubated with 200 μg MRC5 cell lysate for 1 h at 4° C. in a total volume of 50 μl wash buffer. In all cases the biotinylated peptides and associated proteins were pulled down using streptavidin agarose. The proteins were separated by SDS PAGE and subjected to Western blotting using anti-eIF4E antibody. Detection was by ECL;

Series [6] concerns MRC5 cells. Kind of series: mitochondrial permeability transition (JC1 dye, confocal microscopy). It counts as cell-based. Particulars: 10 μM peptide, serum-starved MRC5 cells. The method, then:
as §1
An early event considered decisive in apoptosis is the opening of the mitochondrial permeability transition (MPT) pore (20–22). To characterise further the eIF4E-binding peptide-induced cell death, the development of the MPT was investigated in living MRC5 cells loaded with the fluorescent dye, JC1 (21).

The next series concerns HaCaT cells. Description: cytotoxic or cytostatic effect on HaCaT cells. It counts as cell-based.
Series [7] relates to MRC5 cells. Kind of series: [35S]methionine incorporation into protein. Particulars: serum deprived cells, 30 minutes. It counts as cell-based. How it is done:
as §2
Serum deprived cells were treated with the general translation inhibitors Cyclohexamide or Pactamycin at indicated concentrations or the H4G peptide in the presence of 35S-Met for 30 minutes (see FIGS. 16a,b). Cells were lysed and the amount of translation was estimated by counting incorporated 35S-Met in precipitated protein fractions.

Series [8] has as its system HaCaT, Swiss 3T3, RATI and IIeLa cells. Kind of series: cell survival in other cell-types. The class given is cell-based. Particulars: results not shown.
The test system of series [9] is MRC5 cells. Description: TUNEL analysis. The class given is cell-based. Particulars: 10 μM peptide, 10 min. How it is done: as §1
The target in another series is recombinant human eIF4E (Homo sapiens, UniProt P06730). Kind of series: in vitro binding (pull-down) assay with eIF4E. The settings on record: FIG. 4, FIG. 5. The method, then: as §3
In order to study directly the role of eIF4E in cell transformation, a series of biotinylated synthetic peptides (Peptides synthesised by Cyclacel) corresponding to the eIF4E interacting domain (binding motif) of human eIF4G, and wheat eIF4G and alanine substituted peptides thereof were synthesised (see FIG. 12a) and tested for their capacity to interact with ^35S-Met labelled in vitro translated human eIF4E (NB. Peptides BP1 and BP1 YLM-AAA were not biotinylated). Peptides were coupled to streptavidin coated agarose beads by a N-terminus linked biotin group and washed in PBS/0.2% Tween 3× before being incubated for 1 hour at +4° C. with in vitro translated human eIF4E. Beads were washed as above and boiled for 5 min. in SDS loading buffer before the peptide bound proteins were separated on a 10% SDS gel. The bands were visualised by autoradiography.

Series [10] relates to MRC5 cells. Kind of series: cell survival by MTT assay. The settings on record: various concentrations, 72 h serum-starved MRC5 cells, FIGS. 13b,c,d. The class given is cell-based. How it is done: FIGS. 13a–d are graphs showing cell survival (% of control, untreated cells) as measured by MTT assay. a) Lane 1: 10 μM BP2 peptide added to serum-fed cells or Lane 2, 3, 4: 10 μM BP2 peptide added to 24 h, 48 h or 72 h serum-starved cells respectively. Lane 5: 10 μM BP2 YLL-AAA added to 72 h serum starved cells. Lane 6: 72 h serum starved cells incubated in 10% serum for 1 h prior to addition to 10 μM BP2 peptide. Lane 7: 72 h serum starved cells incubated with 100 μg/ml cycloheximide followed by a 1 h incubation with 10% serum prior to the addition of 10 μM BP2 peptide. In all cases the cells were then further incubated for 1 h in 0.1 mg/ml MTT. Cells were lysed in DMSO and absorbance was measured at […]. b–d) Varying concentrations of peptides were added to 72 h serum starved MRC5 cells. After 30 min incubation the cells were then further incubated for 1 h in 0.1 mg/ml MTT. Cells were lysed in DMSO and absorbance was measured at 570 nm.

Chain of recombinant human eIF4E (P06730 whole entry, the tested form may be a part): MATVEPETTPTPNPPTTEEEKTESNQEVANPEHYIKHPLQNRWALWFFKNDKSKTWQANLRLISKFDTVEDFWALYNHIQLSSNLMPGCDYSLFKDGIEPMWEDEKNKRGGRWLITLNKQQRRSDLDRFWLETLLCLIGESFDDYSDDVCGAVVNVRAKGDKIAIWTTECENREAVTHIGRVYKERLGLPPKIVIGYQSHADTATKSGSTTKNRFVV
T1 sequence (P06730 whole entry): as the sequence (P06730 whole entry, the tested form may be a part) above

With “Hu4G: biotinylated, penetratin-linked peptide of the eIF4E binding motif of human eIF4G (KKRYDREFLLGFRQIKIWFQNRRMKWKK; also: biotinylated)”, the nuclear condensation entry in the series with MRC5 cells [1] is “signs of nuclear condensation”. Besides, the DNA profile result in the series on MRC5 cells [2] is “shift in the DNA profile from G0/1 to sub G0/1”. The “effect of limited serum treatment on sensitivity to the peptide” value with MRC5 cells [3] (FIG. 9) is listed as “Resistance”. Also, the “cell death (possibly by apoptosis)” value in the series with MRC5 cells [3] (serum starved cell lines, FIG. 8) was “caused rapid cell death”. Also, the cell killing result in the series on MRC5 cells [4] is recorded as “they die”. The “binding of eIF4E in cell lysates” value in series [5] is listed as “bound eIF4E in cell lysates”. Moreover, in the series with MRC5 cells [6], the “changes in JC1 fluorescence (MPT pore opening)” value is recorded as “rapid increase” and the “time to increase in green fluorescence with loss of orange fluorescence” value is at most 5 min. In addition, in the series on HaCaT cells (60 h serum starved cells), the “time until cells began to die after peptide treatment” value is at most 15 min. Moreover, the “effect with short treatment” value in the series on HaCaT cells (HaCaT cells, <24 h with 20 μM) is “no effect observed”. For the same substance, the “cytotoxic or cytostatic effect” value in the series on HaCaT cells (selected cell lines) is reported as “exhibited a cytotoxic or cytostatic effect on selected cell lines”. Further, in the series on MRC5 cells [7], the “incorporation of 35S-Met (translation)” value was “do not incorporate 35S-Met”. Besides, the cell survival entry in [8] is “rapid cell death”. For the same substance, the “cells fluoresced positive (TUNEL)” value in the series with MRC5 cells [9] was 80%. In addition, in the series with recombinant human eIF4E, the “binding to recombinant human eIF4E in vitro” value is “found to bind recombinant human eIF4E in vitro”. In the series on MRC5 cells [10], the “cell death / cell viability” value is reported as “rapid, dose-dependent, cell death”.
